Laboratory results reported in article PMC9617636 (Antiviral Research, 2022).

Key:
Type in all cases: cell-based
[1] = system: −1 PRF signal of SARS-CoV-2
B.1.1.7 SARS-CoV-2 = system: B.1.1.7 SARS-CoV-2
SARS-CoV-2 = assay: Antiviral plaque assay in Vero-E6 cells; conditions: Severe acute respiratory syndrome coronavirus 2, Vero C1008, read-out: EC50 (95% CI), SARS-CoV-2 B.1.351 (Beta), Vero-E6

Compound	-1PRF inhibition with mutated binding pocket [1]	change in the EC50s after 11 passages in presence of geneticin (B.1.1.7 SARS-CoV-2)	EC50 (SARS-CoV-2)
CN[C@@H]1[C@@H](O)[C@@H](O[C@@H]2[C@@H](O)[C@H](O[C@H]3O[C@H]([C@@H](C)O)[C@@H](O)[C@H](O)[C@H]3N)[C@@H](N)C[C@H]2N)OC[C@]1(C)O [Geneticin]	significant loss of -1PRF inhibition	did not observe any significant change in the EC50s	129 µM
CCNCC1CCN(c2c(F)cc3c(=O)c(C(=O)O)cn(CC)c3c2F)C1 (stereo not shown) [Merafloxacin]	significant loss of -1PRF inhibition	–	–
